Laboratory results published in ChEMBL document CHEMBL4715723, “Discovery and development of benzo-[1,2,4]-triazolo-[1,4]-oxazepine GPR142 agonists for the treatment of diabetes” (Bioorg Med Chem Lett, 2016).

Legend:
[1] = biological target: T1, Probable G-protein coupled receptor 142 (Homo sapiens, UniProt Q7Z601); experiment: Agonist activity at human GPR142 expressed in CHO cells measured for 3 mins by Fluo-4M dye based FLIPR assay; type: cell-based; conditions: read-out: IC50 (the source's name)
T1 sequence (Q7Z601 whole entry): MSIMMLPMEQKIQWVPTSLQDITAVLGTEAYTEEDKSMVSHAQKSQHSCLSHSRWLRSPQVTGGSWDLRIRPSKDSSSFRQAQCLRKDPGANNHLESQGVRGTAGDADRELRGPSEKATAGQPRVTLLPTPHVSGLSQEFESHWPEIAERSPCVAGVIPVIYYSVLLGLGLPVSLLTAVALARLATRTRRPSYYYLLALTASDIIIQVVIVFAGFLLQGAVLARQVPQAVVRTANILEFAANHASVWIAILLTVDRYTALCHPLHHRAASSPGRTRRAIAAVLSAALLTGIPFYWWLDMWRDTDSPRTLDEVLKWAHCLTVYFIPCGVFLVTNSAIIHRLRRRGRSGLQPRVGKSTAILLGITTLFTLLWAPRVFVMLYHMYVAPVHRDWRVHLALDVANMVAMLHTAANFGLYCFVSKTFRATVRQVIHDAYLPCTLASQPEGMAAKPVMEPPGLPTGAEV

[2] = biological target: T2, Probable G-protein coupled receptor 142 (Mus musculus, UniProt Q7TQN9); experiment: Agonist activity at mouse GPR142 expressed in CHO cells measured for 3 mins by Fluo-4M dye based FLIPR assay; type: cell-based; conditions: read-out: IC50 (the source's name)
T2 sequence (Q7TQN9 whole entry): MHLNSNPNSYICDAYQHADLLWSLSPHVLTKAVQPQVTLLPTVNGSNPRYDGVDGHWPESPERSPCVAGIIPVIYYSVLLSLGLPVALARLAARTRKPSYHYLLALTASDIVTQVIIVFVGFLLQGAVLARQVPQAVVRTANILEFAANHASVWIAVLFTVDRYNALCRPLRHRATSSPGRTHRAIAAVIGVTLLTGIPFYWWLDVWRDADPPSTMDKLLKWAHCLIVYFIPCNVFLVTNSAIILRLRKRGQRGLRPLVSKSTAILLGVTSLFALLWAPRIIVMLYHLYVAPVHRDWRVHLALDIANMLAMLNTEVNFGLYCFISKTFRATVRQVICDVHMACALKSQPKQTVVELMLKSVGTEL

[3] = Half life in rat at 2 mg/kg, po or 1 mg/kg, iv; type: ADME, organism-based; conditions: in vivo
[4] = Clearance in rat at 2 mg/kg, po or 1 mg/kg, iv; type: ADME, organism-based; conditions: in vivo
[5] = Volume of distribution at steady state in rat at 2 mg/kg, po or 1 mg/kg, iv; type: ADME, organism-based; conditions: in vivo, read-out: Vdss
Cytochrome P450 2D6 = Cytochrome P450 2D6 (Homo sapiens, UniProt P10635); experiment: Inhibition of human liver microsomes CYP2D6 using dextromethorphan as substrate by MUX-MS/MS analysis; type: ADME, Microsome
Chain of Cytochrome P450 2D6 (P10635 whole entry): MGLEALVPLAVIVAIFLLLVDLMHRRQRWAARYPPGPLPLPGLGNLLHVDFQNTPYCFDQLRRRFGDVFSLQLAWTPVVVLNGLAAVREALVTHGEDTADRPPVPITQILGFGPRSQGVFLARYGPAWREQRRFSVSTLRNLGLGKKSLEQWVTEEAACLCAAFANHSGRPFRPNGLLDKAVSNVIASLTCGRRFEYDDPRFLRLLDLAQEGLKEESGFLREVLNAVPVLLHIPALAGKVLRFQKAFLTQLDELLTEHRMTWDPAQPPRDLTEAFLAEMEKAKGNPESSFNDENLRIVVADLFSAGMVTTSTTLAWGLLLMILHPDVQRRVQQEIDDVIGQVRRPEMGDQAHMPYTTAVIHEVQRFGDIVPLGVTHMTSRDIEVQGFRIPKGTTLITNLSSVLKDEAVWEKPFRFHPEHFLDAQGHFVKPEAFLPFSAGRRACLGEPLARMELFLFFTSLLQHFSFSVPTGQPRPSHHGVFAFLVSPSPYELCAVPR

Cytochrome P450 3A4 = Cytochrome P450 3A4 (Homo sapiens, UniProt P08684); experiment: Inhibition of human liver microsomes CYP3A4 using testosterone as substrate by MUX-MS/MS analysis; type: ADME, Microsome
Chain of Cytochrome P450 3A4 (P08684 whole entry): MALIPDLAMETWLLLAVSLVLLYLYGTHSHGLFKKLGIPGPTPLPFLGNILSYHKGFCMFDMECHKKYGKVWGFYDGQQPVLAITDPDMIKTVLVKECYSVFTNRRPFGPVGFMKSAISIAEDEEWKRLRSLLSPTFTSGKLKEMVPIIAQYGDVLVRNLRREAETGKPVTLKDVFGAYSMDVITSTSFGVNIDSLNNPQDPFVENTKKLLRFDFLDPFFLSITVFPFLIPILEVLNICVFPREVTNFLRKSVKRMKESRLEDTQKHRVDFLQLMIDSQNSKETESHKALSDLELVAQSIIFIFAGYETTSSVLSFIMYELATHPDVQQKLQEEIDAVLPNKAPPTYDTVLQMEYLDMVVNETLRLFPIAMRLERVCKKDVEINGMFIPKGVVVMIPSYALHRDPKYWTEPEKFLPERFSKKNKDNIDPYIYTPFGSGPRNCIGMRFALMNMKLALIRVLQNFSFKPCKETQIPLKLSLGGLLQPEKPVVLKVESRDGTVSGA

Cytochrome P450 2C9 = Cytochrome P450 2C9 (Homo sapiens, UniProt P11712); experiment: Inhibition of human liver microsomes CYP2C9 using diclofenac as substrate by MUX-MS/MS analysis; type: ADME, Microsome
Chain of Cytochrome P450 2C9 (P11712 whole entry): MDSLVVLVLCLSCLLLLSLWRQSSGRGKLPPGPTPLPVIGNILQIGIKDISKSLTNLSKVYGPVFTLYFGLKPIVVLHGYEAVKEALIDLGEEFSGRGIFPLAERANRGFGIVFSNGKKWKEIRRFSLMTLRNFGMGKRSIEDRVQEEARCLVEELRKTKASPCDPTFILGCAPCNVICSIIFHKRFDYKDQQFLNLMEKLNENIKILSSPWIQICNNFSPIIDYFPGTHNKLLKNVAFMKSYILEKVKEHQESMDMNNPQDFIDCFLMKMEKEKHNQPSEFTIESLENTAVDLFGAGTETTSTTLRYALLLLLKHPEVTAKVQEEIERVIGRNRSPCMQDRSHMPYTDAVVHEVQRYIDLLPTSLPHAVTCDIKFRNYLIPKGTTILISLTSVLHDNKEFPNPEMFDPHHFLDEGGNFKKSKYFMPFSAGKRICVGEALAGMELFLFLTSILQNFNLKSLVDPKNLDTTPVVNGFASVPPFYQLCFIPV

[6] = biological target: Voltage-gated inwardly rectifying potassium channel KCNH2 (Homo sapiens, UniProt Q12809); experiment: Inhibition of human ERG expressed in HEK293 cells assessed as reduction in S35-MK-0499 binding; type: cell-based
Chain of Voltage-gated inwardly rectifying potassium channel KCNH2 (Q12809 whole entry): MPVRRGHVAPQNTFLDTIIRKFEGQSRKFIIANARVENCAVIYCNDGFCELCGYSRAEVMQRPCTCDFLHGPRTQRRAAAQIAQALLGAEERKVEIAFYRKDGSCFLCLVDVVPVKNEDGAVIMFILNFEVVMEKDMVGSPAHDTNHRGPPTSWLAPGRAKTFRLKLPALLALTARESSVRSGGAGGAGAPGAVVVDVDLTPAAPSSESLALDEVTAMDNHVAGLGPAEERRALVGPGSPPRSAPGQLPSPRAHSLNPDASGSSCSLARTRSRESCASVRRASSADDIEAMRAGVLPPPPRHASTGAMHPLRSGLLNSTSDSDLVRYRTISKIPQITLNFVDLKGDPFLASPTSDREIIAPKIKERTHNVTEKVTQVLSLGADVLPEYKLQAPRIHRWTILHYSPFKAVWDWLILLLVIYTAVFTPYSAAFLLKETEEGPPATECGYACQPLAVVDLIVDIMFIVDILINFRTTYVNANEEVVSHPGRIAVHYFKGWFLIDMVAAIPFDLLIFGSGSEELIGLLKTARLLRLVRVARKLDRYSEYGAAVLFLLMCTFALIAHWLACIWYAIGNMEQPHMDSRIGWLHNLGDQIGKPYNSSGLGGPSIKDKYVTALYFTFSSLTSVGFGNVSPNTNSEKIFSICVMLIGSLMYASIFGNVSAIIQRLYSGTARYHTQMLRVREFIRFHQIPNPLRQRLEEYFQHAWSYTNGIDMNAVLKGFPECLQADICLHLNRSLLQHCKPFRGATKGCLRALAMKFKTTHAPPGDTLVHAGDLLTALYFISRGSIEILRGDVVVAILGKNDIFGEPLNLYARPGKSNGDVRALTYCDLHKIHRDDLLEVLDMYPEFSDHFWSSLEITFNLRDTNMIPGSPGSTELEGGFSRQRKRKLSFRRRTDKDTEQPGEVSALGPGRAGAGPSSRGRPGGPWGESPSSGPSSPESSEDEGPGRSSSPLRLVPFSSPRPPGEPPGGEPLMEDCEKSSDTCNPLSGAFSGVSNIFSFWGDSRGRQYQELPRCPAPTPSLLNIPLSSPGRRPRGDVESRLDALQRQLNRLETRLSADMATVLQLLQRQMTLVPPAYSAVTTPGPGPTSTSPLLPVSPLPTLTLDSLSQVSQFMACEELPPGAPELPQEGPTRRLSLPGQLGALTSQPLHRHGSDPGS

[7] = Protein binding in rat plasma assessed as unbound fraction; type: ADME, cell-free
Mus musculus = experiment: Antidiabetic activity in […] mouse assessed as reduction in dextrose-induced blood glucose peak administered po before dextrose stimulation and measured upto 120 mins after dextrose administration by OGTT assay; type: functional, organism-based; conditions: time min <=120
[8] = Oral bioavailability in rat at 2 mg/kg; type: ADME, organism-based; conditions: in vivo

Row | EC50 [1] [µM] | EC50 [2] [µM] | Structure (SMILES) | also measured
1 | 0.146 | 0.158 | O=C(Nc1ccc(Cl)c(Cl)c1)N1CCNc2ccc(-c3ccncc3)cc2C1 | 
2 | 1.64 | 0.611 | O=C(Cc1cccc(C(F)(F)F)c1)N1CCOc2ccc(-c3ccncc3)cc2C1 | 
3 | 0.045 |  | Cc1cc(-c2ccc3c(c2)-c2nnc(Nc4cccc(OC(F)(F)F)c4)n2CCO3)ccn1 | half-life [3]: 2 h; clearance [4]: 11 mL/min/kg; Vd [5]: 1.9 L/kg; IC50 (Cytochrome P450 2D6): 1.72 µM; IC50 (Cytochrome P450 3A4): > 50 µM; IC50 (Cytochrome P450 2C9): 1.39 µM; IC50 [6]: 0.236 µM; fraction unbound [7]: 0.0949
4 | > 20 | > 20 | COc1ccc(NC(=O)N2CCOc3ccc(-c4ccncc4)cc3C2)cc1 | 
5 | > 20 | > 20 | O=C(Nc1ccc(Cl)c(Cl)c1)N1Cc2ccc(-c3ccncc3)cc2C1 | 
6 | 0.158 | 0.11 | O=C(Nc1cccc(C(F)(F)F)c1)N1CCOc2ccc(-c3ccncc3)cc2C1 | 
7 | 0.187 | 0.486 | COc1cccc(NC(=O)N2CCOc3ccc(-c4ccncc4OC)cc3C2)c1 | 
8 | 0.056 |  | Cc1cc(-c2ccc3c(c2)-c2nnc(Oc4cccc(Cl)c4F)n2CCO3)ccn1 | half-life [3]: 2 h; clearance [4]: 8.9 mL/min/kg; Vd [5]: 1.6 L/kg; IC50 (Cytochrome P450 2D6): 12.1 µM; IC50 (Cytochrome P450 3A4): 8.39 µM; IC50 (Cytochrome P450 2C9): 5.26 µM; Activity (Mus musculus): Dose-dependent effect; bioavailability [8]: 67%; IC50 [6]: 2.41 µM; fraction unbound [7]: 0.0111
9 | 0.343 | 0.062 | O=C(Nc1cccc(-c2ccccc2)c1)N1CCOc2ccc(-c3ccncc3)cc2C1 | 
10 | > 20 | > 20 | O=C(Nc1ccc(Cl)c(Cl)c1)N1CCCc2ccc(-c3ccncc3)cc21 | 
11 | 0.224 | 0.413 | O=C(Nc1cccc(F)c1)N1CCOc2ccc(-c3ccncc3)cc2C1 | 
12 | 2.8 | 2.57 | COc1cccc(NC(=O)N2CCOc3ccc(-c4ccnc(OC)c4)cc3C2)c1 | 
13 | 0.074 |  | CCc1cc(-c2ccc3c(c2)-c2nnc(Nc4cccc(C(F)(F)F)c4)n2CCO3)ccn1 | half-life [3]: 1.4 h; clearance [4]: 14 mL/min/kg; Vd [5]: 2.6 L/kg; IC50 (Cytochrome P450 2D6): 2.34 µM; IC50 (Cytochrome P450 3A4): > 50 µM; IC50 (Cytochrome P450 2C9): 3.54 µM; bioavailability [8]: 97%; IC50 [6]: 0.334 µM; fraction unbound [7]: 0.0034
14 | > 20 | 2.95 | O=C(Nc1ccc(Cl)c(Cl)c1)N1CCc2ccc(-c3ccncc3)cc21 | 
15 | > 20 | > 20 | COc1cccc(N(C)C(=O)N2CCOc3ccc(-c4ccncc4)cc3C2)c1 | 
16 | 1.6 |  | COc1cccc(NC(=O)N2CCOc3ccc(-c4ccncn4)cc3C2)c1 | 
17 | 0.593 |  | Cc1cc(-c2ccc3c(c2)-c2nnc(Cc4cccc(Cl)c4)n2CCO3)ccn1 | IC50 (Cytochrome P450 2D6): 1.01 µM; IC50 (Cytochrome P450 3A4): 1.06 µM; IC50 (Cytochrome P450 2C9): 1.45 µM; IC50 [6]: 3.86 µM
18 | 1.72 | 0.146 | O=C(Nc1cccc(Oc2ccccc2)c1)N1CCOc2ccc(-c3ccncc3)cc2C1 | 
19 | 0.132 | 0.613 | O=C(Nc1ccc(F)c(Cl)c1)N1CCOc2ccc(-c3ccncc3)cc2C1 | 
20 | 0.048 |  | FC(F)(F)c1cccc(Nc2nnc3n2CCOc2ccc(-c4ccncc4)cc2-3)c1 | IC50 (Cytochrome P450 2D6): 0.782 µM; IC50 (Cytochrome P450 3A4): 0.516 µM; IC50 (Cytochrome P450 2C9): 0.531 µM; IC50 [6]: 0.557 µM
21 | 0.108 | 0.164 | O=C(Nc1cccc(Cl)c1)N1CCOc2ccc(-c3ccncc3)cc2C1 | half-life [3]: 0.66 h; clearance [4]: 56.1 mL/min/kg; Vd [5]: 2 L/kg; bioavailability [8]: 1%; fraction unbound [7]: 0.0086
22 | 0.962 | 0.216 | COc1cccc(NC(=O)N2CCOc3ccc(-c4ccnc5ccccc45)cc3C2)c1 | 
23 | 0.08 | 0.079 | N#Cc1cccc(NC(=O)N2CCOc3ccc(-c4ccncc4)cc3C2)c1 | 
24 | 0.163 | 0.059 | O=C(Nc1cccc(Cl)c1F)N1CCOc2ccc(-c3ccncc3)cc2C1 | 
